These results are taken from patent publication US8119633B2, “Substituted sulfonamide compounds” (Gruenenthal GmbH, priority 2007, dated 2012).

Usually inhibition stands for the relative decrease from the control value, in per cent.

In test [1] the target is T1, bradykinin receptor 1 (B1R) of the rat (Rattus norvegicus, UniProt P97583).
T1 construct: expressed in transfected cells; host or cells: CHO K1 cells
T1 sequence (P97583 1-337): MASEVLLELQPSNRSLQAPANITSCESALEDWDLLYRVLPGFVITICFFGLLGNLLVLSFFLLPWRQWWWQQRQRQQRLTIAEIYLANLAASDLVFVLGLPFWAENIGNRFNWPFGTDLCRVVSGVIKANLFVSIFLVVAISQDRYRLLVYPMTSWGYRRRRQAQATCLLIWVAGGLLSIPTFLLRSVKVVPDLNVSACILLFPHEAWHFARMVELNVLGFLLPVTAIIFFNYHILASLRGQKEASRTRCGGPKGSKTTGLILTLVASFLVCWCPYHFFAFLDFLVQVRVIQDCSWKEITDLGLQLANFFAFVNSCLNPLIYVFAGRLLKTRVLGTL
The test can be described thus: Functional study on the bradykinin receptor 1 (B1R), rat: FLIPR Ca2+ influx assay. In kind it is cell-based. Particulars: test substance 10 μM, CHO K1 cells transfected with rat B1R, Des-Arg9-bradykinin at EC80, Ca2+ influx (Fluo-4, FLIPR); for inhibition at 10 µM: read-out: B1R antagonism, rat [10 μM] % inhibition. In a few lines: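 CHO K1 cells stably expressing rat B1R, Fluo-4-loaded, read on FLIPR (ex 488/em 540 nm, peak fluorescence). Test substances added first (agonism vs 10 μM Des-Arg9-bradykinin), then after 10-20 min Des-Arg9-bradykinin at EC80; % inhibition and IC50 from concentration series, n=2-3, N≥2.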

Test [2] concerns the target T2, human bradykinin receptor 1 (B1R) (Homo sapiens, UniProt P46663).
T2 construct: expressed in transfected cells; host or cells: CHO K1 cells
T2 sequence (P46663 1-353): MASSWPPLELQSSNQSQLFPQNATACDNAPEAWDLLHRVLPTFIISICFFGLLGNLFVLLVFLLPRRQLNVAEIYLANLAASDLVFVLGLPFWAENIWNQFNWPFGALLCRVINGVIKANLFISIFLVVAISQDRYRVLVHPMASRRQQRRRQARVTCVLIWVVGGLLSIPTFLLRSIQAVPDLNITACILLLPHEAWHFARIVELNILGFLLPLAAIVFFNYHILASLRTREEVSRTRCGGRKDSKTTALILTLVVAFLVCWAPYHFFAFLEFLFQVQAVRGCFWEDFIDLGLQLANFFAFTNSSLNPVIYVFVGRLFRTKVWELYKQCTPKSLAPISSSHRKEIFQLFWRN
In words: Functional study on the bradykinin receptor 1 (B1R), human: FLIPR Ca2+ influx assay. The conditions noted are these: test substance 10 μM, CHO K1 cells transfected with human B1R, Lys-Des-Arg9-bradykinin at EC80, Ca2+ influx (Fluo-4, FLIPR); for inhibition at 10 µM: read-out: B1R antagonism, human [10 μM] % inhibition. Format: cell-based. An outline of the steps: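 CHO K1 cells stably expressing human B1R were loaded with Fluo-4, and Ca2+ fluorescence was read on FLIPR (ex 488/em 540 nm). Compound was added first (10 μM for % activation against Lys-Des-Arg9-bradykinin ≥0.5 nM). After 10-20 min, Lys-Des-Arg9-bradykinin was added at EC80 for % inhibition; IC50 came from concentration series, n=2-3, N≥2.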

The target of the next test is T3, human μ-opiate receptor (Homo sapiens, UniProt P35372).
T3 construct: purchased PerkinElmer Life Sciences, Zaventem, Belgium RB-HOM; host or cells: CHO-K1 cells (membrane preparation)
In words: Affinity for the human μ-opiate receptor ([3H]-naloxone displacement, SPA). The conditions noted are these: test substance 1 μmol/l, inhibition of specific [3H]-naloxone binding, CHO-K1 receptor membrane preparation; for inhibition at 1 µM: read-out: μ-Opioid receptor [1 μM] % inhibition. The method, then: Studies of the Effectiveness of the Compounds According to the Invention Method for determining the affinity for the human μ-opiate receptor
The receptor affinity for the human μ-opiate receptor is determined in a homogeneous batch on microtitre plates. To this end, serial dilutions of the substances to be tested are incubated for 90 minutes at room temperature with a receptor membrane preparation (15-40 μg of protein/250 μl of incubation batch) of CHO-K1 cells, which express the human μ-opiate receptor (RB-HOM receptor membrane preparation from PerkinElmer Life Sciences, Zaventem, Belgium), in the presence of 1 nmol/l of the radioactive ligand [^3H]-naloxone (NET719, PerkinElmer Life Sciences, Zaventem, Belgium) and 1 mg of WGA-SPA beads (wheatgerm agglutinin SPA beads from Amersham/Pharmacia, Freiburg, Germany) in a total volume of 250 μl. The incubation buffer used is 50 mmol/l of Tris-HCl supplemented with 0.06 wt. % bovine serum albumin. In order to determine non-specific binding, 100 μmol/l of naloxone is additionally added. When the ninety-minute incubation time has ended, the microtitre plates are centrifuged off for 20 minutes at 1000 g and the radioactivity is measured in a β-counter (Microbeta-Trilux, PerkinElmer Wallac, Freiburg, Germany). The percentage displacement of the radioactive ligand from its binding to the human μ-opiate receptor at a concentration of the test substances of 1 μmol/l is determined and stated as the percentage inhibition of specific binding. On the basis of the percentage displacement by different concentrations of the test substances, IC50 inhibitory concentrations, which effect 50% displacement of the radioactive ligand, are calculated. Ki values for the test substances are obtained by conversion by means of the Cheng-Prusoff equation.

T3 sequence (P35372 whole entry): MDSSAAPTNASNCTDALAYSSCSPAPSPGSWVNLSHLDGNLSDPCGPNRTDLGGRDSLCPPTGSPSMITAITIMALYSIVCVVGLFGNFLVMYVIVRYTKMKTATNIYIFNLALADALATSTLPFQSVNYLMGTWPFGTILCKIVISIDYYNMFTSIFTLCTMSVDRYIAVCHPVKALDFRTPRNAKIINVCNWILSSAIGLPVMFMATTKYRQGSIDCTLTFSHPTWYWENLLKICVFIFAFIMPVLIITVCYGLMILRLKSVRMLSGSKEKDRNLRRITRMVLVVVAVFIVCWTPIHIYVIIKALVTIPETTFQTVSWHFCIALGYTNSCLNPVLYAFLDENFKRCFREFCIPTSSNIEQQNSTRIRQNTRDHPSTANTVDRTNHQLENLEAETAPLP

For the molecule `O=C(CC1CCCN1S(=O)(=O)c1ccc(Cl)c(Cl)c1)NC1CCC(C(CCc2ccccc2)N2CCCCC2)CC1` (stereo not drawn) [Example 77, 2-(1-(3,4-dichlorophenylsulfonyl)pyrrolidin-2-yl)-N-(4-(3-phenyl-1-(piperidin-1-yl)propyl)cyclohexyl)acetamide], the figures for the inhibition at 10 µM in test [1] and in test [2] were 1% and 102%, respectively. Besides, the inhibition at 1 µM on human μ-opiate receptor was found to be 35%.

Consider `CN1CCN(C(c2cccc(F)c2)C2CCN(C(=O)CC3CCCCN3S(=O)(=O)c3cccc(C(F)(F)F)c3)CC2)CC1` (stereo not drawn) [Example 115, 1-(4-((3-fluorophenyl)(4-methylpiperazin-1-yl)methyl)piperidin-1-yl)-2-(1-(3-(trifluoromethyl)phenylsulfonyl)piperidin-2-yl)ethanone], for which the inhibition at 10 µM in test [1] came to 52%; in test [2] it was 87%. Further, on human μ-opiate receptor, the inhibition at 1 µM turned out to be 11%.

As to `O=C(CC1C(=O)NCCN1S(=O)(=O)c1ccc(Cl)cc1Cl)NCC1CCC(C(c2ccccc2)N2CCCC2)CC1` (stereo not drawn) [Example 58, 2-[1-(2,4-dichloro-benzenesulfonyl)-3-oxo-piperazin-2-yl]-N-[4-(phenyl-pyrrolidin-1-yl-methyl)-cyclohexylmethyl]-acetamide], the inhibition at 10 µM is 11% in test [1] and 104% in test [2]. Also, the inhibition at 1 µM at human μ-opiate receptor came out at 70%.

On to `COc1cc(C)c(S(=O)(=O)N(C)CCCNC(=O)NC2CCC(C(c3ccccc3)N(C)C)CC2)c(C)c1C` (stereo not drawn) [Example 1, N—(3-{3-[4-(Dimethylaminophenylmethyl)cyclohexyl]ureido}propyl)-4-methoxy-2,3,6,N-tetramethylbenzenesulfonamide], for which the inhibition at 10 µM in test [1] is 56%; in test [2], 71.5%. In addition, the inhibition at 1 µM on human μ-opiate receptor was found to be 94%.

As for `O=C(CC1CCCCN1S(=O)(=O)c1ccc(Cl)c(Cl)c1)NCC1CCC(C(CCc2ccccc2)N2CCCC2)CC1` (stereo not drawn) [Example 84, 2-[1-(3,4-dichloro-benzenesulfonyl)-piperidin-2-yl]-N-[4-(3-phenyl-1-pyrrolidin-1-yl-propyl)-cyclohexylmethyl]-acetamide], the inhibition at 10 µM in test [1] was 19%; in test [2], 95.4%. The inhibition at 1 µM at human μ-opiate receptor was found to be 90%.

Turning to `O=C(CC1CCCCN1S(=O)(=O)c1ccc(Cl)c(Cl)c1)NCC1CCC(C(c2ccccc2)N2CCCC2)CC1` (stereo not drawn) [Example 85, 2-[1-(3,4-dichloro-benzenesulfonyl)-piperidin-2-yl]-N-[4-(phenyl-pyrrolidin-1-ylmethyl)-cyclohexylmethyl]-acetamide], the inhibition at 10 µM turned out to be 22% in test [1] and 92.7% in test [2]. The inhibition at 1 µM on human μ-opiate receptor was 95%.

On to `O=C(CC1CCCN1S(=O)(=O)c1ccc(Cl)c(Cl)c1)NCC1CCC(C(CCc2ccccc2)N2CCOCC2)CC1` (stereo not drawn) [Example 74, 2-[1-(3,4-dichloro-benzenesulfonyl)-pyrrolidin-2-yl]-N-[4-(1-morpholin-4-yl-3-phenyl-propyl)-cyclohexylmethyl]-acetamide], for which the inhibition at 10 µM came to 19% in test [1] and 54.7% in test [2]. Besides, the inhibition at 1 µM on human μ-opiate receptor is 7%.

In the case of “N-(3-(4-(1-(4-methylpiperazin-1-yl)-3-phenylpropyl)piperidin-1-yl)-3-oxo-1-phenylpropyl)naphthalene-2-sulfonamide [Example 113]”, in test [1], the “B1R antagonism, rat [10 μM] % inhibition” value was determined as 39%. In addition, in test [2], the “B1R antagonism, human [10 μM] % inhibition” value came out at 97%. Also, the “μ-Opioid receptor [1 μM] % inhibition” value at human μ-opiate receptor is on record as 21%.

As to `O=C(CC1CCCN1S(=O)(=O)c1ccc(Cl)c(Cl)c1)N1CCC(C(c2ccccc2)N2CCOCC2)CC1` (stereo not drawn) [Example 80, 2-[1-(3,4-dichloro-benzenesulfonyl)-pyrrolidin-2-yl]-1-[4-(morpholin-4-yl-phenylmethyl)-piperidin-1-yl]-ethanone], the inhibition at 10 µM in test [1] worked out at 15%; in test [2], 16.7%. Moreover, the inhibition at 1 µM at human μ-opiate receptor was determined as 7%.

In the case of `O=C(CC1CCCN1S(=O)(=O)c1ccc(Cl)c(Cl)c1)NCC1CCC(C(c2ccccc2)N2CCOCC2)CC1` (stereo not drawn) [Example 73, 2-[1-(3,4-dichloro-benzenesulfonyl)-pyrrolidin-2-yl]-N-[4-(morpholin-4-yl-phenyl-methyl)-cyclohexylmethyl]-acetamide], the inhibition at 10 µM worked out at 36% in test [1] and 76.3% in test [2]. Besides, the inhibition at 1 µM at human μ-opiate receptor is 17%.

Regarding `COc1cc(C)c(S(=O)(=O)N(C)CCCNC(=O)NC2CCC(C(c3ccccc3)N3CCCC3)CC2)c(C)c1C` (stereo not drawn) [Example 3, 4-Methoxy-2,3,6,N-tetramethyl-N—(3-{3-[4-(phenylpyrrolidin-1-ylmethyl) -cyclohexyl]-ureido}propyl)benzenesulfonamide], the inhibition at 10 µM in test [1] was 58%; in test [2], 80.8%. Moreover, at human μ-opiate receptor, the inhibition at 1 µM stood at 71%.

On to `O=C(CC1CCCCN1S(=O)(=O)c1ccc(Cl)c(Cl)c1)N1CCC(C(Cc2ccccc2)N2CCOCC2)CC1` (stereo not drawn) [Example 90, 2-(1-(3,4-dichlorophenylsulfonyl)piperidin-2-yl)-1-(4-(1-morpholino-2-phenylethyl)piperidin-1-yl)ethanone], for which the inhibition at 10 µM in test [1] worked out at 17%; in test [2] it was 14.4%. The inhibition at 1 µM on human μ-opiate receptor came to 12%.

Take `CN1CCN(C(Cc2ccccc2)C2CCN(C(=O)CC3CCCCN3S(=O)(=O)c3cccc(C(F)(F)F)c3)CC2)CC1` (stereo not drawn) [Example 111, 1-(4-(1-(4-methylpiperazin-1-yl)-2-phenylethyl)piperidin-1-yl)-2-(1-(3-(trifluoromethyl)phenylsulfonyl)piperidin-2-yl)ethanone]: the inhibition at 10 µM in test [1] came to 61%; in test [2] it was 94%. Further, the inhibition at 1 µM at human μ-opiate receptor is -2%.

In the case of `O=C(CC1C(=O)Nc2ccccc2N1S(=O)(=O)c1ccc(Cl)c(Cl)c1)NCC1CCC(C(CCc2ccccc2)N2CCCC2)CC1` (stereo not drawn) [Example 66, 2-[1-(3,4-dichloro-benzenesulfonyl)-3-oxo-1,2,3,4-tetrahydro-quinoxalin-2-yl]-N-[4-(3-phenyl-1-pyrrolidin-1-yl-propyl)-cyclohexylmethyl]-acetamide], the inhibition at 10 µM in test [1] turned out to be 96%; in test [2], 102%. For the same molecule, the inhibition at 1 µM at human μ-opiate receptor turned out to be 11%.

For the molecule `CN(C)C(c1ccccc1)C1CCC(CNC(=O)CC2CCCCN2S(=O)(=O)c2cccc(C(F)(F)F)c2)CC1` (stereo not drawn) [Example 8, N—((4-((Dimethylamino)(phenyl)methyl)cyclohexyl)methyl)-2-(1-(3-(trifluoromethyl)phenylsulfonyl)piperidin-2-yl)acetamide], the inhibition at 10 µM in test [1] came to 9%; in test [2], 71.4%. The inhibition at 1 µM on human μ-opiate receptor worked out at 94%.
